Reference: patent US4202988A, “Prostenoic acids and esters” (American Cyanamid Company, priority 1977, dated 1980)

Key:
[1] = tested on: bronchospasms elicited by histamine; assay: Bronchodilator activity against histamine bronchospasm (Konzett procedure); format: in vivo, guinea pigs; conditions: Cavia porcellus; guinea pig, three logarithmic cumulative intravenous doses
Description: (§1) Bronchodilator activity is determined in guinea pigs against bronchospasms elicited by intravenous injections of 5-hydroxytryptamine, histamine or acetylcholine by the Konzett procedure. [See J. Lulling, P. Lievens, F. El Sayed and J. Prignot, Arzeneimittel-Forschung, 18, 995 (1968).] In Table B bronchodilator activity for representative compounds of this invention against one or more of the three spasmogenic agents is expressed as an ED50 determined from the results obtained with three logarithmic cumulative intravenous doses.

[2] = tested on: collagen induced platelet aggregation (human protein rich plasma); assay: Inhibition of Platelet Aggregation - In Vitro, collagen induced; format: cell-based; parameters: key: (-): Inhibition; (+): No inhibition
From the text: (§2) It is well known that platelet aggregation inhibitors may be useful as anti-thrombotic drugs. Inhibition of platelet aggregation can be conveniently measured in vitro by monitoring changes in optical density and/or light transmission in platelet rich plasma upon addition of suitable aggregating agents such as adenosine diphosphate, epinephrine, thrombin or collagen. Alternatively, platelet aggregation can be measured in vitro using platelet rich plasma obtained at various time intervals from animals given inhibitors by an oral or parenteral route.
(§3) Human […] is incubated with modified Tyrode's solution in a proportion of 40-50% human […]. The test compounds are added at varying concentrations and after 5 minutes incubation, an aggregating agent such as adenosine diphosphate or collagen is added. The change in optical density (light transmission) is monitored by eye and inhibition is recorded as a (-) or lack of inhibition is recorded as a (+). Test compounds are considered active if they inhibit adenosine diphosphate or collagen induced aggregation at a concentration of 25 mcg/ml or less within 5-10 minutes.

[3] = tested on: bronchospasms elicited by acetylcholine; assay: Bronchodilator activity against acetylcholine bronchospasm (Konzett procedure); format: in vivo, guinea pigs; conditions: Cavia porcellus; guinea pig, three logarithmic cumulative intravenous doses
Description: as §1

[4] = tested on: bronchospasms elicited by 5-hydroxytryptamine; assay: Bronchodilator activity against 5-hydroxytryptamine bronchospasm (Konzett procedure); format: in vivo, guinea pigs; conditions: Cavia porcellus; guinea pig, three logarithmic cumulative intravenous doses
Description: as §1

[5] = tested on: adenosine diphosphate induced platelet aggregation (human protein rich plasma); assay: Inhibition of Platelet Aggregation - In Vitro, adenosine diphosphate induced; format: cell-based; parameters: key: (-): Inhibition; (+): No inhibition
From the text: as §2, §3

Row | Compound | ED50 [1] [µg/kg] | Inhibition of platelet aggregation, collagen ([2]; drug concentration 25 μg/ml) | Inhibition of platelet aggregation, collagen ([2]; drug concentration 250 μg/ml) | ED50 [3] [µg/kg] | ED50 [4] [µg/kg] | Inhibition of platelet aggregation, adenosine diphosphate ([5]; drug concentration 25 μg/ml) | Inhibition of platelet aggregation, adenosine diphosphate ([5]; drug concentration 250 μg/ml) | Inhibition of platelet aggregation, adenosine diphosphate ([5]; drug concentration 2.5 μg/ml)
1 | O=C(O)CCC/C=C\C[C@@H]1C(=O)C=C[C@H]1/C=C/C1(O)CCCCC1 (relative stereo) [nat-(and ent)-15-hydroxy-9-oxo-15,16-tetramethylene-17,18,19,20-tetranor-5-cis-10,13-trans-prostatrienoic Acid] | 0.632 | (+) | (-) | > 3.2 | > 3.2 | (+) | (-) | 
2 | N#CC1CC(=O)C(CC=CCCCC(=O)O)C1C=CC1(O)CCCCC1 (stereo not drawn) [nat(and ent)-11α/βCyano-15-hydroxy-9-ozxo-15, 16-tetramethylene-17,18,19,20-tetranor-5-cis-13-trans-prostadienoic Acid] | 0.367 | (-) | (-) | 2.74 | 1.81 | (-) | (-) | (-)
